Test system: dopamine receptor D1
Conditions: co-imaging, quinpirole first, then SKF38393, FIG. 5A
Protocol: To minimize a photobleaching phenomenon, the live fluorescence microscope was set. When stimulated with light at a wavelength of 560 nm in the live fluorescence microscope, intensity at a cpRFP fluorescence wavelength of 610 nm was measured.
To induce fluorescence intensity suitable for experiments, 50 msec exposure and ND16 intensity were maintained. The fluorescence cycle was performed for total 10 minutes by measuring cpRFP images for 1 minute using the fluorescence microscope.
The saved images were analyzed using an NIS program (Nikon). cpRFP fluorescence intensity of the entire single cells in the regions of interest (ROI) was analyzed in the NIS program.

SMILES: Oc1cc2c(cc1O)C(c1ccccc1)CNCC2 (stereo not shown) [SKF38393]
- fluorescence of red biosensor DRD1 Red 1.3 on ligand treatment: increase in fluorescence by selective response

Source: patent publication US11860166B2 (KOREA INSTITUTE OF SCIENCE AND TECHNOLOGY, priority 2019, dated 2024)
